The target in data set [1] is T1, Polyprotein P1234 (Chikungunya virus (strain S27-African prototype) (CHIKV), UniProt Q8JUX6). The data set is described as follows: Inhibition of CHIKV nsP2 protease activity assessed as decrease in the fluorescence signal using peptide substrate measured for 20 mins by FRET analysis.
Data set [2] concerns the target T1, Polyprotein P1234. The data set is described as follows: Binding affinity to CHIKV nsP2 assessed as inhibition constant by measuring fluorescence by multimode microplate reader.
The target in data set [3] is T1, Polyprotein P1234. The data set is described as follows: Binding affinity to CHIKV nsP2 assessed as equilibrium dissociation constant by isothermal titration calorimetry.
For data set [4], the system named is Sindbis virus. The data set is described as follows: Antiviral activity against SINV infected african green monkey Vero cells assessed as reduction of plaque formation at 100 uM measured after 48 hrs relative to control. The class given is functional.
For data set [5], the system named is Sindbis virus. The data set is described as follows: Antiviral activity against SINV infected african green monkey Vero cells assessed as reduction in viral titer measured after 24 hrs by plaque assay. The class given is functional, organism-based.
Data set [6] is described as follows: Cytotoxicity against african green monkey Vero cells assessed as cell viability measured after 48 hrs by MTT assay. The class given is toxicity, cell-based. The following applies: chlorocebus sabaeus. (In general: Tetrazolium assays rely on reduction of a dye to a coloured formazan, in cell work by metabolically active cells.)
For data set [7], the system named is Chikungunya virus. The data set is described as follows: Antiviral activity against CHIKV infected african green monkey Vero cells assessed as inhibition of virus induced cytopathic effect measured after 48 hrs. The class given is functional, organism-based.
The nature of data set [8]: Selectivity index, ratio of CC50 for African green monkey Vero cells to EC50 for CHIKV. The class given is toxicity. The following applies: read-out: Selectivity Index.
For data set [9], the system named is Chikungunya virus. The data set is described as follows: Antiviral activity against CHIKV infected african green monkey Vero cells assessed as inhibition of virus induced cytopathic effect by measuring virus positive cells at 50 uM measured after 48 hrs by flow cytometry relative to control. The class given is functional. Also noted: scale not given: the % may be the effect or the level left. Background: Damage to the host cells serves as the signal in cytopathic effect assays.

The nature of data set [10]: Antiviral activity against […] infected african green monkey Vero cells assessed as reduction in viral RNA copies measured per uL at 50 uM measured after 24 hrs (reference value: 1.4 x […] vRNA copy numbers/uL). The class given is functional.

The term IC50 denotes the concentration needed to halve the response being measured. The term Ki denotes a dissociation constant, usually derived from enzyme kinetics or from competition with a known ligand. One may read the Kd as the constant that tells how readily two partners part at equilibrium. As a reminder, the EC50 is the concentration giving half of the maximal effect. By CC50 is commonly meant the concentration that lowers cell viability or growth by half.

T1 sequence (Q8JUX6 536-1333 limits assumed): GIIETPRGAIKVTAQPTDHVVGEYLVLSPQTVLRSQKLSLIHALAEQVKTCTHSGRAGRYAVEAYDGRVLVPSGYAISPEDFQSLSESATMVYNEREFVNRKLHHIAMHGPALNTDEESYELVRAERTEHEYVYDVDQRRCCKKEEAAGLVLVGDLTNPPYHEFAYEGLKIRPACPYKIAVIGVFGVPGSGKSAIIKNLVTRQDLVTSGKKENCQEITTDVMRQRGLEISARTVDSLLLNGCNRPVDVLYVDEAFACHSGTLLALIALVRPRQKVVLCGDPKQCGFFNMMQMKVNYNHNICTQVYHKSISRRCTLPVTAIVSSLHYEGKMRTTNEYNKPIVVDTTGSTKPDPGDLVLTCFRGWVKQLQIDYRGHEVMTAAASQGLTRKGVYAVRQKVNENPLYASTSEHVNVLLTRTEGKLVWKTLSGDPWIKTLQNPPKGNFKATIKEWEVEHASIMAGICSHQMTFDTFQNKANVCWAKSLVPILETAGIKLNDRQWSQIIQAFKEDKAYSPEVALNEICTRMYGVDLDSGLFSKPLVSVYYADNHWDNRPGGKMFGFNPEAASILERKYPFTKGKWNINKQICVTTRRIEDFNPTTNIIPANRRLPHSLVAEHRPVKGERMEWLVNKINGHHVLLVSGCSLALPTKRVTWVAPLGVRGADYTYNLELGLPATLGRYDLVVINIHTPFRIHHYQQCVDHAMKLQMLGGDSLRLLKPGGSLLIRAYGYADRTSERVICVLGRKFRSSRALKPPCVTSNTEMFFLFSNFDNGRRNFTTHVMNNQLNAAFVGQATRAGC

Regarding `O=C(/C=C/c1ccc(Cl)cc1Cl)Nc1ccccc1`, on Polyprotein P1234 [1], the IC50 stood at 20 µM. Also, the Ki at Polyprotein P1234 [2] stood at 92.3 µM. Besides, the Kd on Polyprotein P1234 [3] was found to be 159 µM. Also, in the data set with Sindbis virus [4], the Imax is 88.77%. Moreover, the EC50 was < 3.12 µM in the data set on Sindbis virus [5] and 47.9 µM in the data set on Chikungunya virus [7]. The 50% cytotoxic concentration (CC50) at 48 h in data set [6] was > 200 µM. The selectivity ratio in data set [8] is > 4.17.
With `O=C(/C=C/c1ccc(Br)cc1)Nc1ccccc1`, the IC50 on Polyprotein P1234 [1] turned out to be 15.2 µM. For the same compound, the Ki at Polyprotein P1234 [2] was 182 µM. For the same compound, the Kd on Polyprotein P1234 [3] is 218 µM. In the data set on Sindbis virus [4], the Imax was >79.9%. Also, the EC50 in the data set on Sindbis virus [5] amounted to 3.2 µM.
For the compound `COc1ccccc1/C=C/C(=O)Nc1ccccc1`, on Polyprotein P1234 [1], the IC50 was 0.95 µM. Moreover, the Ki at Polyprotein P1234 [2] worked out at 2.3 µM. The Kd on Polyprotein P1234 [3] stood at 198 µM. Further, in the data set with Sindbis virus [4], the Imax came to 58%. In addition, the EC50 with Sindbis virus [5] was 73.1 µM; in the data set on Chikungunya virus [7] it was 25.9 µM. Also, the CC50 at 48 h in data set [6] is > 200 µM. Also, in [8], the selectivity ratio is > 7.72.
As for `O=C(/C=C/c1ccc(C(F)(F)F)cc1)Nc1ccccc1`, the IC50 on Polyprotein P1234 [1] came out at 12.5 µM. In addition, the inhibitory constant (Ki) on Polyprotein P1234 [2] came out at 48.6 µM. The dissociation constant Kd on Polyprotein P1234 [3] turned out to be 127 µM. In addition, in the data set on Sindbis virus [4], the Imax is listed as 95.76%. The EC50 worked out at 0.95 µM with Sindbis virus [5] and 5.2 µM in the data set on Chikungunya virus [7]. The CC50 at 48 h in data set [6] was 165 µM. In addition, in data set [8], the selectivity ratio was found to be 31.8. The Activity with Chikungunya virus [9] came out at 35.8%; in [10], 720000.

For the origin of these results see ChEMBL document CHEMBL5620400, “Design, synthesis, antiviral evaluation, and In silico studies of acrylamides targeting nsP2 from Chikungunya virus” (Eur J Med Chem, 2023).
